Data as given in PubChem BioAssay AID2305 (GlaxoSmithKline (GSK), 2010).

Each compound was assayed on P. falciparum 3D7 growth, pLDH absorbance (assay: blood-stage malaria parasite growth potency – strain 3D7, dose response (AID 2305)).

Row | SMILES | IC50 [nM]
1 | O=C(Nc1cccc(-c2cc3ccccc3[nH]2)c1)C1CCN(Cc2ccccc2O)CC1 | 940
2 | Cc1[nH]c2ccc(C#N)cc2c(=O)c1Br | 640
3 | O=C(Nc1ccc(-c2cccc(-c3nc4ccc(F)cc4[nH]3)c2)cc1)Nc1ccsc1 | 690
4 | c1cncc(CCNCc2cccc(-c3ccc(-c4nc5ccccc5[nH]4)s3)c2)c1 | 200
5 | CCC[C@@H]([C@@H](CC(C)C)C(=O)N[C@@H](CCCNc1nccc(C(F)(F)F)n1)C(=O)Nc1nccs1)N(O)C=O | 370
6 | COc1ccc(-c2ccc(NC(=O)c3ccc(F)cc3)cc2)cc1CN1CCCN(C)CC1 | 660
7 | Cc1cccc2[nH]c(-c3ccc(-c4cccc(CN5CCC(N)C5)c4)s3)nc12 (stereo unspecified) | 770
8 | Cc1cccc2[nH]c(-c3ccc(-c4cccc(NC(=O)c5cncn5C)c4)s3)nc12 | 640
9 | Cc1ccc(CN=C(N)NC(=O)c2nc(Cl)c(NCc3ccc(Cl)cc3)nc2N)c(C)c1 | 170
10 | CC(=O)N(Cc1ccccc1-c1ccc(CNCCc2ccccc2)cc1)C1CCN(Cc2ccccc2)CC1 | 480
11 | NCc1ccc(CNCc2cccc(-c3cccc(-c4nc5ccccc5[nH]4)c3)c2)cc1 | 490
12 | COc1ccccc1C1CCN(C2CCC(NC(=O)/C=C/c3cccc(Cl)c3)CC2)CC1 (stereo unspecified) | 1030
13 | CN1CCCC(CN2CCN(Cc3cccc(-c4ccc(-c5nc6ccccc6[nH]5)s4)c3)CC2)C1 (stereo unspecified) | 150
14 | O=C(C=Cc1ccc(-c2nc3ccccc3[nH]2)cc1)NC1CCN(Cc2ccccc2)CC1 | 740
15 | O=C(Nc1cccc(CN2CCN(Cc3ccc(O)cc3)CC2)c1)c1cc2ccccc2s1 | 680
16 | CCOC(=O)c1[nH]c(-c2cccc(F)c2)nc1N | 750
17 | CCNc1cc(C(=O)N[C@@H](Cc2ccccc2)[C@H](O)CNC23CCC(CC2)C3)cc(N2CCCCS2(=O)=O)c1 | 30
18 | CCCN(CCC)C(C)CCC(C)Nc1c2ccc(Cl)cc2nc2ccc(OC)cc12 (stereo unspecified) | 70
19 | O=C1NC(=S)NC1=CC=Cc1ccc([N+](=O)[O-])o1 | 1070
20 | Cc1cccc(Cn2c(Cc3ccccc3)nnc2Sc2ccc([N+](=O)[O-])c(C#N)c2)c1 | 1140
21 | Cc1c(-c2ccc(C(=O)NC3CC(C)(C)NC(C)(C)C3)cc2)[nH]c2cc(Cl)c(Cl)cc12 | 750
22 | O=C(Nc1ccc(C(F)(F)F)cc1)c1ccc(S(=O)(=O)NCC2CCCN(CC3CCCCC3)C2)cc1 (stereo unspecified) | 150
23 | COc1ccc(Cc2cccc(C(C(=O)NCc3cc(Cl)cc(Cl)c3)N3CCN(C)CC3)c2)cc1 (stereo unspecified) | 690
24 | CCc1ccc(NC(=O)c2cccc(CN3CCCN(CC4CCCCC4)CC3)c2)cc1 | 950

Row | SMILES | IC50 [nM]
25 | COc1ccc(OCC(=O)Nc2cc(-c3nc4ccccc4[nH]3)ccc2Cl)cc1 | 900
26 | O=C(Nc1cccc(CN2CCCN(Cc3cccnc3)CC2)c1)c1ccc(Cl)c(Cl)c1 | 930
27 | COc1cc(N(Cc2ccc(F)cc2)C(=O)c2ccc(-c3ccccc3)cc2)ccc1OCCN1CCCC1 | 830
28 | Cc1ccc(N2CCN(CCCCNC(=O)c3ccc(NC(=O)c4ccc(Cl)cc4)cc3)CC2)c(C)c1 | 760
29 | Cc1ncc([N+](=O)[O-])n1CCOC(=O)NC(Nc1ccc(Br)cc1)C(Cl)(Cl)Cl (stereo unspecified) | 960
30 | O=C(Nc1cccc(-c2ccc(-c3nc4ccc(F)cc4[nH]3)cc2)c1)Nc1ccc(Cl)c(Cl)c1 | 140
31 | Cc1[nH]c(C)c(-c2ccc(-c3ccc(Cl)cc3)cc2)c(=O)c1Cl | 210
32 | COc1ccc(-c2ncnc(C(F)(F)F)c2-c2ccc(Cl)cc2)c(O)c1 | 800
33 | CCc1ccc(C(=O)NC(=O)c2ccccc2O)cc1 | 610
34 | COc1ccc2nc(-c3ccc(F)cc3)cc([C@@H](O)[C@@H]3C[C@@H]4CCN3CC4C=NO)c2c1 (stereo partly specified) | 250
35 | CN(C)CCOc1ccc2c(c1)OC(C)(C)C=C2c1cccc2ccccc12 | 780
36 | Cn1cc(CCNc2ccnc(N3CCC(c4ncc[nH]4)CC3)n2)c2ccccc21 | 1200
37 | CC[C@H](C)CNC(=O)c1cncc(-c2ccc(CN3CCC(N4CCCC4)CC3)cc2)c1 | 970
38 | CC(C)(C)OC(=O)NCc1ccc(Nc2nnc(-c3ccc(OCC(=O)NCc4cc(C(F)(F)F)cc(C(F)(F)F)c4)c([N+](=O)[O-])c3)o2)cc1 | 460
39 | O=C(Nc1ccc([N+](=O)[O-])cc1O)Nc1ccccc1Oc1ccccc1 | 930
40 | c1ccc2[nH]c(-c3ccc(-c4ccc(CNCC5CCCO5)cc4)s3)nc2c1 (stereo unspecified) | 870
41 | Cc1ccc(NC(=O)c2ccc(N3CCC(c4ccccc4C)CC3)nc2)cc1 | 1400
42 | CN(Cc1ccc(NC(=O)CCC2CCN(C(=O)/C=C/c3ccc(Cl)c(Cl)c3)CC2)cc1)C1CCOCC1 | 1730
43 | COc1ccc2nc(-c3cc(-c4ccc(NC(C)=O)cc4)cnc3N)[nH]c2c1 | 1240
44 | O=C(Nc1cc(F)cc(F)c1)N1CCOC(CCN2CCC(c3ccccc3)CC2)(c2ccc(Cl)c(Cl)c2)C1 (stereo unspecified) | 470
45 | CO/C(=C\C=C\c1cc2cc(Cl)c(Cl)cc2[nH]1)C(=O)NCCN1CCCCC1 | 1400
46 | NC(=O)c1cccc(Nc2nccc(Nc3ccc(Oc4cccc5ccccc45)cc3)n2)c1 | 1150
47 | N#Cc1c(-c2ccccc2)cn2c1[nH]c(=O)c1ccccc12 | 110
48 | COc1cccc2c(NCCNc3ccnc4c(OC)cccc34)ccnc12 | 270

Row | SMILES | IC50 [nM]
49 | CNc1ccc(CNCc2ccc(-c3ccc(-c4nc5ccc(F)cc5[nH]4)cc3)cc2)cc1 | 210
50 | CCN(CCCN1CCCC1)c1cc(C)nc(Nc2ccc(Cl)cc2)n1 | 340
51 | O=[N+]([O-])c1cccc(CNC2CCN(Cc3ccc(C(F)(F)F)cc3)CC2)c1 | 740
52 | COc1ccccc1Oc1c(N(C)S(=O)(=O)c2ccc(C(C)C)cc2)nc(C(F)(F)F)nc1N(C)S(=O)(=O)c1ccc(C(C)C)cc1 | 850
53 | COc1ccc2nc(N3CCN(C(=O)OC(C)(C)C)CC3)nc(NCCCc3ccccc3)c2c1 | 690
54 | CN(C)C(CNC(=O)c1cc(-c2ccncc2)c(-c2cc3ccccc3[nH]2)o1)c1ccccc1 (stereo unspecified) | 840
55 | COc1cccc(-c2cc(C(F)(F)F)n3ncc(C(=O)Nc4cc(C)ccc4O)c3n2)c1 | 160
56 | COc1cc(C)nc2ccc(NC(=O)Nc3ccc([N+](=O)[O-])cc3C)cc12 | 600
57 | O=C(Cc1cn(-c2ccccc2)nc1-c1ccc(Cl)cc1)Nc1nccs1 | 1200
58 | COc1cccc(C=NNc2cc(C)nc3c(OC)cccc23)c1 | 580
59 | O=C(c1ccc(Cl)cc1)C1CCN(CCCOc2ccc3c(c2)CCNCC3)CC1 | 1150
60 | CC(=O)c1cccc(NC(=O)c2ccc(Cl)c(S(=O)(=O)N3CCc4ccccc43)c2)c1 | 1640
61 | Cc1cc2c(cc1C(F)(F)F)N(C(=O)Nc1cc(C(=O)NCCN(C)C)cc(C(F)(F)F)c1)CC2 | 730
62 | Nc1ncnc2cc(-c3cccc(NC(=O)Nc4ccccc4)c3)sc12 | 710
63 | Cc1noc(C)c1-c1ccc(C(=C2CCCCCC2)c2ccc(O)cc2)cc1 | 190
64 | O=c1cc(NCCCNC2CCc3ccc(Cl)cc32)[nH]c2ccccc12 (stereo unspecified) | 860
65 | CN(C)CCCOc1cccc(NC(=O)Nc2ccc(Cl)c(Cl)c2)c1 | 960
66 | COc1ccc(NC(=O)Nc2ccc(-c3cccc(-c4nc5ccccc5[nH]4)c3)cc2)cc1 | 760
67 | NOCCCCOc1cc(Cl)c(Cl)cc1Cl | 170
68 | COc1ccccc1Nc1nc(NC2CCN(C)CC2)cc(-c2cccc(C(F)(F)F)c2)n1 | 920
69 | CN(C)c1ccc(-c2nc3ccc(N)cc3[nH]2)cc1 | 240
70 | CC(C)c1sc(N2CCN(C)CC2)nc1C(=O)Nc1cccc2c1CCCC2 | 1280
71 | COc1cccc(CCc2nc3c(N4CCC(Cc5ccccc5)CC4)cccc3n2CC2CNCCO2)c1 (stereo unspecified) | 800
